Laboratory results reported in ChEMBL document CHEMBL1201862, “PubChem BioAssay data set” (2004).
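1) Cells in 96-well plates. 2) Compound, 48 h, 5 concentrations. 3) Linear interpolation between surrounding doses. 4) Unreached endpoint = highest concentration. GI50 is the concentration that inhibits growth by half.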 Activity calls are given as the source filed them. No stated cut-off is given here; in the data, active = GI50 up to about 1.1 µM and inactive = higher.

Tests used:
Experiment in all cases: NCI anticancer screen, dose series, 48 h
786-0 = tested on: 786-0
A498 = tested on: A498
CAKI-1 = tested on: CAKI-1
COLO 205 = tested on: COLO 205
HCC 2998 = tested on: HCC 2998
HT-29 = tested on: HT-29
Hs-578T = tested on: Hs-578T
IGROV-1 = tested on: IGROV-1
NCI/ADR-RES = tested on: NCI/ADR-RES
PC-3 = tested on: PC-3
SF-539 = tested on: SF-539
SK-MEL-28 = tested on: SK-MEL-28
SK-MEL-2 = tested on: SK-MEL-2
SK-OV-3 = tested on: SK-OV-3
SR = tested on: SR
UACC-62 = tested on: UACC-62
HOP-92 = tested on: HOP-92
NCI-H460 = tested on: NCI-H460

Measured: GI50

N#CC1=C(N)N(c2ccccc2)C(c2ccco2)C1(C#N)C#N (configuration not stated)
inactive: 786-0 17.5 µM | A498 21.8 µM | CAKI-1 30.6 µM | COLO 205 19.4 µM | HCC 2998 16.4 µM | HT-29 20 µM | Hs-578T 36.6 µM | IGROV-1 19.2 µM | NCI/ADR-RES 27 µM | PC-3 27.4 µM | SF-539 19.3 µM | SK-MEL-28 17.9 µM | SK-MEL-2 27.5 µM | SK-OV-3 77.8 µM | SR 20.5 µM | UACC-62 23.2 µM

CC(NCc1c(O)ccc2ccc(=O)oc12)C(=O)O (configuration not stated)
inactive: 786-0 > 100 µM | CAKI-1 > 100 µM | COLO 205 > 100 µM | HCC 2998 > 100 µM | HOP-92 > 100 µM | HT-29 > 100 µM | Hs-578T > 100 µM | IGROV-1 > 100 µM | NCI-H460 > 100 µM | NCI/ADR-RES > 100 µM | PC-3 > 100 µM | SF-539 > 100 µM | SK-MEL-28 > 100 µM | SK-MEL-2 > 100 µM | SK-OV-3 > 100 µM | SR > 100 µM | UACC-62 > 100 µM

COC(=O)c1c(O)ccc2c1c1c(n2Cc2ccc(OC)cc2)C(=O)c2ccccc2C1
inactive: 786-0 53.2 µM | A498 > 100 µM | CAKI-1 20.6 µM | COLO 205 16.9 µM | HT-29 21.7 µM | Hs-578T > 100 µM | IGROV-1 21.6 µM | NCI-H460 29.3 µM | NCI/ADR-RES 32.9 µM | PC-3 18.5 µM | SF-539 42.2 µM | SK-MEL-28 > 100 µM | SK-MEL-2 62.5 µM | SK-OV-3 31 µM | SR 66.2 µM | UACC-62 > 100 µM

OCC1CCCC(n2cnc3c(S)ncnc32)O1 (configuration not stated)
inactive: 786-0 > 100 µM | A498 > 100 µM | CAKI-1 > 100 µM | COLO 205 > 100 µM | HCC 2998 > 100 µM | HOP-92 > 100 µM | HT-29 > 100 µM | Hs-578T > 100 µM | IGROV-1 > 100 µM | NCI-H460 > 100 µM | NCI/ADR-RES > 100 µM | PC-3 > 100 µM | SK-MEL-28 > 100 µM | SK-MEL-2 > 100 µM | SK-OV-3 > 100 µM | SR > 100 µM | UACC-62 > 100 µM

NC(=O)CC[C@H]1C(=O)N=C(N)N1C(=O)OCc1ccccc1
inactive: 786-0 > 100 µM | A498 > 100 µM | CAKI-1 > 100 µM | COLO 205 > 100 µM | HCC 2998 > 100 µM | HT-29 > 100 µM | Hs-578T > 100 µM | IGROV-1 > 100 µM | NCI-H460 > 100 µM | NCI/ADR-RES > 100 µM | PC-3 > 100 µM | SK-MEL-28 > 100 µM | SK-MEL-2 > 100 µM | SR > 100 µM | UACC-62 > 100 µM

Nc1ccc2c(SCCSc3c4ccccc4nc4cc(N)ccc34)c3ccccc3nc2c1
inactive: 786-0 > 100 µM | CAKI-1 > 100 µM | COLO 205 > 100 µM | HOP-92 > 100 µM | HT-29 > 100 µM | Hs-578T > 100 µM | IGROV-1 > 100 µM | NCI-H460 > 100 µM | NCI/ADR-RES > 100 µM | PC-3 > 100 µM | SF-539 > 100 µM | SK-MEL-28 > 100 µM | SK-MEL-2 > 100 µM | SK-OV-3 > 100 µM | SR 23 µM | UACC-62 > 100 µM

CC(NCc1c(O)ccc2c(-c3ccccc3)cc(=O)oc12)C(=O)O (configuration not stated)
inactive: 786-0 > 100 µM | CAKI-1 > 100 µM | COLO 205 > 100 µM | HCC 2998 > 100 µM | HOP-92 86.1 µM | HT-29 > 100 µM | Hs-578T > 100 µM | IGROV-1 > 100 µM | NCI-H460 > 100 µM | NCI/ADR-RES > 100 µM | PC-3 > 100 µM | SF-539 > 100 µM | SK-MEL-28 > 100 µM | SK-MEL-2 > 100 µM | SK-OV-3 > 100 µM | SR > 100 µM | UACC-62 > 100 µM

COC(=O)c1cc(=O)nc2sc3cccc(C)c3n12
inactive: 786-0 21.3 µM | CAKI-1 24.6 µM | COLO 205 14.3 µM | HOP-92 30.2 µM | HT-29 28.5 µM | Hs-578T 56.2 µM | IGROV-1 92 µM | NCI-H460 68.7 µM | NCI/ADR-RES > 100 µM | PC-3 21 µM | SF-539 34.1 µM | SK-MEL-28 62.8 µM | SK-MEL-2 30.3 µM | SK-OV-3 > 100 µM | SR 24 µM | UACC-62 46.2 µM

Cc1cc2c(cc1C)C(=O)C1(C2)Cc2c(ccc(C)c2C)C1=O (configuration not stated)
inactive: 786-0 89.1 µM | CAKI-1 > 100 µM | COLO 205 > 100 µM | HCC 2998 > 100 µM | HOP-92 79.4 µM | Hs-578T 42.5 µM | IGROV-1 > 100 µM | NCI-H460 > 100 µM | NCI/ADR-RES > 100 µM | PC-3 > 100 µM | SF-539 36.6 µM | SK-MEL-28 > 100 µM | SK-MEL-2 > 100 µM | SR > 100 µM | UACC-62 > 100 µM

COc1ccccc1N/C(=C\C(=O)C(=O)NC12CC3CC(CC(C3)C1)C2)c1ccccc1
inactive: 786-0 > 10 µM | A498 > 10 µM | CAKI-1 > 10 µM | COLO 205 > 10 µM | HCC 2998 > 10 µM | HT-29 > 10 µM | Hs-578T > 10 µM | IGROV-1 > 10 µM | NCI-H460 > 10 µM | NCI/ADR-RES > 10 µM | PC-3 7.55 µM | SF-539 > 10 µM | SK-MEL-28 > 10 µM | SK-MEL-2 > 10 µM | SK-OV-3 > 10 µM | SR > 10 µM

CC(C)(C)[Si](C)(C)OCC1OC(n2cnc3c(N)ncnc32)C(O)C1O (configuration not stated)
inactive: 786-0 > 100 µM | CAKI-1 > 100 µM | COLO 205 > 100 µM | HT-29 > 100 µM | Hs-578T 44.5 µM | IGROV-1 > 100 µM | NCI-H460 > 100 µM | NCI/ADR-RES 87.7 µM | PC-3 43.5 µM | SF-539 > 100 µM | SK-MEL-28 > 100 µM | SK-MEL-2 > 100 µM | SK-OV-3 30.7 µM | SR 60.8 µM | UACC-62 22.1 µM

COC(=O)/C=C(/C)n1nc2ccccc2n1
inactive: 786-0 > 100 µM | A498 77.3 µM | CAKI-1 > 100 µM | COLO 205 > 100 µM | HCC 2998 > 100 µM | HT-29 > 100 µM | Hs-578T > 100 µM | IGROV-1 > 100 µM | NCI-H460 > 100 µM | NCI/ADR-RES > 100 µM | PC-3 > 100 µM | SK-MEL-28 > 100 µM | SK-MEL-2 > 100 µM | SK-OV-3 > 100 µM | SR > 100 µM | UACC-62 > 100 µM

CCC1C(c2cc(OC)c(OC)c(OC)c2)c2cc3c(cc2OC1N1CCOCC1)OCO3 (configuration not stated)
inactive: 786-0 11.6 µM | COLO 205 4.22 µM | HOP-92 10.8 µM | HT-29 2.73 µM | Hs-578T 3.02 µM | IGROV-1 3.9 µM | NCI-H460 3.4 µM | NCI/ADR-RES 5.61 µM | PC-3 2.02 µM | SK-MEL-2 14.7 µM | SK-OV-3 4.88 µM | SR 3.18 µM | UACC-62 6.08 µM

c1ccc(/C(=N/Nc2cnccn2)c2ncccn2)cc1
inactive: 786-0 81.3 µM | CAKI-1 50.9 µM | COLO 205 32.1 µM | HCC 2998 > 100 µM | HOP-92 35.7 µM | HT-29 27.4 µM | Hs-578T 23.1 µM | IGROV-1 23.7 µM | NCI-H460 > 100 µM | NCI/ADR-RES 83.2 µM | PC-3 > 100 µM | SF-539 > 100 µM | SK-MEL-28 > 100 µM | SK-MEL-2 > 100 µM | SK-OV-3 57.7 µM | SR 12.9 µM | UACC-62 88.3 µM

c1ccc(CCN2CCOCC2)nc1
inactive: 786-0 > 100 µM | A498 > 100 µM | CAKI-1 > 100 µM | COLO 205 > 100 µM | HCC 2998 > 100 µM | HOP-92 > 100 µM | HT-29 > 100 µM | Hs-578T > 100 µM | IGROV-1 > 100 µM | NCI-H460 > 100 µM | NCI/ADR-RES > 100 µM | PC-3 > 100 µM | SK-MEL-28 > 100 µM | SK-MEL-2 > 100 µM | SK-OV-3 > 100 µM | SR > 100 µM | UACC-62 > 100 µM

COc1c(C)c(C/C=C(\C)CCCC(C)CCCC(C)CCCC(C)C)c(OC)c2ccccc12 (configuration not stated)
inactive: 786-0 > 100 µM | CAKI-1 > 100 µM | COLO 205 > 100 µM | HCC 2998 > 100 µM | HOP-92 > 100 µM | HT-29 > 100 µM | Hs-578T > 100 µM | IGROV-1 > 100 µM | NCI-H460 > 100 µM | NCI/ADR-RES > 100 µM | PC-3 > 100 µM | SF-539 > 100 µM | SK-MEL-2 > 100 µM | SK-OV-3 > 100 µM | SR > 100 µM | UACC-62 > 100 µM

COc1cc(CSc2ccc(O)cc2)cc(OC)c1OC
inactive: 786-0 55.3 µM | A498 93.3 µM | CAKI-1 34.6 µM | COLO 205 67.8 µM | HOP-92 19.3 µM | HT-29 50.4 µM | Hs-578T 41.3 µM | IGROV-1 48.5 µM | NCI-H460 37.6 µM | NCI/ADR-RES 24.7 µM | PC-3 27.4 µM | SF-539 53.3 µM | SK-MEL-28 76.7 µM | SK-MEL-2 21 µM | SK-OV-3 62.2 µM | SR 24.1 µM | UACC-62 27.4 µM
